Assay results reported in publication PMC7865522, “Analyzing Kinase Similarity in Small Molecule and Protein Structural Space to Explore the Limits of Multi-Target Screening” (Molecules, 2021).

Biological target: PI3K (Homo sapiens, UniProt P42336)
Assay: DiscoverX KINOMEscan competition binding assay
Design: purchased DiscoverX (KINOMEscan service); host or cells: E. coli BL21-derived host (T7 phage) or HEK-293
Details: compound 10 µM; lower values = higher affinity; below 35% = significant binding
Method in brief: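 Kinase binding measured by competition of test compound (10 µM) with an immobilized biotinylated ligand on streptavidin beads, 1 h at room temperature. Kinases were T7 phage-tagged or HEK-293-expressed and DNA-tagged. Bound kinase was eluted and quantified by qPCR; values are % of control, lower meaning stronger binding.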

Chain of PI3K (P42336 whole entry): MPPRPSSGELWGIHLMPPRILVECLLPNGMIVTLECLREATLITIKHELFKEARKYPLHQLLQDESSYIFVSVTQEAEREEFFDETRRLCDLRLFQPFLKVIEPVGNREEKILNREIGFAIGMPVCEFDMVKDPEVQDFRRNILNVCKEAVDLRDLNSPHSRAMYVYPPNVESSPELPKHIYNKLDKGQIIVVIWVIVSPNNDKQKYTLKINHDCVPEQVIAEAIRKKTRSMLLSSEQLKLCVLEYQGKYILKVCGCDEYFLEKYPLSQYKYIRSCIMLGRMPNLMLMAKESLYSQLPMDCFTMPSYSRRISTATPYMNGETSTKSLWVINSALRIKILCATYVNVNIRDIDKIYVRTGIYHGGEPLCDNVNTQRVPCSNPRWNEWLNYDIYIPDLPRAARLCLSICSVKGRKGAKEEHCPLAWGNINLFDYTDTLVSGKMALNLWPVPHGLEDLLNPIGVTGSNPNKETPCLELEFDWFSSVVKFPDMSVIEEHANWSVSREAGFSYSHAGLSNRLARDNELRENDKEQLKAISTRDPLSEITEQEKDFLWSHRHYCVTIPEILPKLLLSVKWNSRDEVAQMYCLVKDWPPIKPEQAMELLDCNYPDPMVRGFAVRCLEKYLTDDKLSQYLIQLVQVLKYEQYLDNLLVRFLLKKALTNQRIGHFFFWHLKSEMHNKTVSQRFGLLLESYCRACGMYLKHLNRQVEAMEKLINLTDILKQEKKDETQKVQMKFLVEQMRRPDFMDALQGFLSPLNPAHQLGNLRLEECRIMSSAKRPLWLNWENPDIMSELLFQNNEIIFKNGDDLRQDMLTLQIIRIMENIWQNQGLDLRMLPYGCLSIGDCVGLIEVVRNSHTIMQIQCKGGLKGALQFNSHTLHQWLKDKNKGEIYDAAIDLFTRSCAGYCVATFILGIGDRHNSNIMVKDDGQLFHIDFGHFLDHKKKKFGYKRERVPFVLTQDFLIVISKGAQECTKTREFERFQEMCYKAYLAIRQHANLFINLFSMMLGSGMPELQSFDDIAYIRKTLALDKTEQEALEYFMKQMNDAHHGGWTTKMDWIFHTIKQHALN

% control, PI3K (DiscoverX): 100 % control
SMILES: COC(=O)Cc1ccc(Oc2ncnc3sc4c(c23)CC[C@@H](C)C4)cc1 (racemic) [DS39984]
